Data reported in patent US20230302036A1, “COMPOSITIONS FOR TREATMENT OF SPINAL MUSCULAR ATROPHY” (priority 2020, published 2023).

Test system: SMA mice (Smn-/-; SMN2 2TG/0)
Assay: Growth curves (body weight gain) of severe SMA mice
Type: in vivo, mouse
Conditions: ASO1 at P0 and P1 and/or VPA 10 µg/g s.c.
Procedure: Kaplan-Meier survival plot (FIG. 4A) and growth curves (FIG. 4B) of SMA mice, following subcutaneous administration at P0 and P1 of 16.8 µg ASO1 (n=18) or saline (n=14), one subcutaneous dose before P3 of 10 µg per g of body weight VPA (n=12), or both treatments together (n=20). ASO1-treated Smn^+/- heterozygote littermates (n=15) served as controls. Scramble (Ctrl) (n=12, 40 trials), VPA (n=13, 50 trials), ASO1 (n=11, 50 trials), ASO1 + VPA (n=17, 68 trials), and untreated heterozygotes (n=12, 36 trials). Statistical significance was analyzed by two-way repeated measures ANOVA. P < 0.05 was considered statistically significant; data are represented as mean + SD. In the righting-reflex test, the time it took a mouse to right itself […] on a flat surface was measured. In the grip-strength test, the angle at which the pups fell from a tablet with a rough to which they held on by their forelimbs was measured.
FIGS. 7A-H show ASO1 and TSA combined treatment in mice. Kaplan-Meier survival plot (FIG. 7A) and growth curves (FIG. 7B) of SMA mice after subcutaneous administration at P0 and P1 of 16.8 µg ASO1 (n=20) or vehicle (n=12), one subcutaneous dose of 10 µg per g of body weight TSA (n=15) at P2, or both treatments together (n=24), are shown. ASO1-treated heterozygotes (n=18) served as controls. Statistical significance was analyzed by two-way repeated measures ANOVA. […]

## CCCC(CCC)C(=O)O [VPA, valproic acid]
  body weight gain in the surviving mice: lack of an effect per se
